{
  "source": "patent US11412737B2",
  "about": "“Mixtures of beflubutamid or optically enriched forms thereof with a second herbicide” (FMC Corporation, priority 2016, dated 2022)",
  "key": {"Barley (B)": {"test_system": "Barley (B)", "test": "post-emergence test, crop injury", "format": "in vivo", "conditions": "post-emergent, 28 DAT, BFL racemic, height at application 14 cm; rate g ai/ha by row: r7 94, r8 125, r9 188, r10 125, r11 250, r12 94+125, r13 125+125, r14 188+125, r15 94+250, r16 125+250, r17 188+250", "protocol": "(§1) Test compositions containing the test compounds were diluted with water to provide the appropriate test rate concentrations.\n(§2) For post-emergence testing, seeds of each species for each rate of application of each herbicide solution were planted in 7.5 cm×7.5 cm plastic pots filled with potting soil. The seeds were germinated and the resulting plants were allowed to grow in a greenhouse until they reached a growth stage, such as height, suitable for testing. […] Pots of post-emergent treated plants were returned to the greenhouse and not watered for 24 hours after treatment. Thereafter they were regularly watered and fertilized for the duration of the test.\n(§3) The control of weeds was evaluated in each experimental test at 21 for wheat and 28 days after treatment (DAT) for all species. […] The rating system is as follows in Table 1."}, "beggerticks (BIDPI)": {"test_system": "beggerticks (BIDPI)", "test": "post-emergence test, weed control", "format": "in vivo, Bidens pilosa", "conditions": "post-emergent, 28 DAT, COC 1%, rate g ai/ha by row: r5 94, r6 125, r7 250, r8 1.25, r9 2.5, r10 5, r11 94+1.25, r13 125+1.25, r15 94+2.5, r17 125+2.5, r19 94+5, r21 125+5", "protocol": "as §1, §2, §3"}, "Green foxtail (SETVI)": {"test_system": "Green foxtail (SETVI)", "test": "post-emergence test, weed control", "format": "in vivo, Setaria viridis", "conditions": "post-emergent, 28 DAT; for control of green foxtail: BFL at 187.5 g, combination of both; for percentage of weed control, SETVI: height 4-5 cm, rate g ai/ha by row: r7 94, r8 125, r9 188, r10 125, r11 250, r12 94+125, r13 125+125, r14 188+125, r15 94+250, r16 125+250, r17 188+250", "protocol": "as §1\nFor post-emergence testing, seeds of each species for each rate of application of each herbicide solution were planted in 7.5 cm×7.5 cm plastic pots filled with potting soil. The seeds were germinated and the resulting plants were allowed to grow in a greenhouse until they reached a growth stage, such as height, suitable for testing. Treatments were applied using compressed air in a track spray chamber at 30 gallons/acre (280 L/ha) using a TeeJet 8001E nozzle at 40 psi (2.76 bars). Pots of post-emergent treated plants were returned to the greenhouse and not watered for 24 hours after treatment. Thereafter they were regularly watered and fertilized for the duration of the test.\n(§4) The control of weeds was evaluated in each experimental test at 21 for wheat and 28 days after treatment (DAT) for all species. Data were analyzed using Minitab software at 95% confidence interval. The results, shown as an average of the replications, were compared with results observed in untreated control flats in the same tests. Percent control was determined by a method similar to the 0 to 100 rating system disclosed in “Research Methods in Weed Science,” 2nd ed., B. Truelove, Ed.; Southern Weed Science Society; Auburn University, Auburn, Ala., 1977. The rating system is as follows in Table 1."}, "Common ragweed (AMBEL)": {"test_system": "Common ragweed (AMBEL)", "test": "post-emergence test, weed control", "format": "in vivo", "conditions": "post-emergent, 28 DAT, height 3-4 cm, rate g ai/ha by row: r7 94, r8 125, r9 188, r10 125, r11 250, r12 94+125, r13 125+125, r14 188+125, r15 94+250, r16 125+250, r17 188+250"}, "Cheat grass (BROSE)": {"test_system": "Cheat grass (BROSE)", "test": "post-emergence test, weed control", "format": "in vivo", "conditions": "post-emergent, 28 DAT, height 7 cm, rate g ai/ha by row: r7 94, r8 125, r9 188, r10 125, r11 250, r12 94+125, r13 125+125, r14 188+125, r15 94+250, r16 125+250, r17 188+250"}, "Large crabgrass (DIGSA)": {"test_system": "Large crabgrass (DIGSA)", "test": "post-emergence test, weed control", "format": "in vivo", "conditions": "post-emergent, 28 DAT; for control of large crabgrass (DIGSA): BFL at 188 g/ha, DCI at 125 g/ha, combination of both; for percentage of weed control, DIGSA: height 3-5 cm, rate g ai/ha by row: r25 94, r26 125, r27 188, r28 125, r29 250, r30 94+125, r31 125+125, r32 188+125, r33 94+250, r34 125+250, r35 188+250"}, "Rice flatsedge (CYPIR)": {"test_system": "Rice flatsedge (CYPIR)", "test": "post-emergence test, weed control", "format": "in vivo", "conditions": "post-emergent, 28 DAT, height 1-2 cm, rate g ai/ha by row: r25 94, r26 125, r27 188, r28 125, r29 250, r30 94+125, r31 125+125, r32 188+125, r33 94+250, r34 125+250, r35 188+250"}, "Redrice (ORYSA)": {"test_system": "Redrice (ORYSA)", "test": "post-emergence test, weed control", "format": "in vivo", "conditions": "post-emergent, 28 DAT; for percentage of weed control, ORYSA: height 8 cm, rate g ai/ha by row: r25 94, r26 125, r27 188, r28 125, r29 250, r30 94+125, r31 125+125, r32 188+125, r33 94+250, r34 125+250, r35 188+250"}, "velvetleaf (IPOHE)": {"test_system": "velvetleaf (IPOHE)", "test": "pre-emergence test, weed control", "format": "in vivo", "conditions": "pre-emergent, 21 DAT, rate g ai/ha by row: r4 94, r5 125, r6 250, r7 125, r8 250, r9 500, r10 94+125, r11 125+125, r12 94+250, r13 125+250, r14 94+500, r15 125+500", "protocol": "as §1\nFor pre-emergence testing, four disposable fiber flats (6 inch by 10 inch) for each rate of application of each herbicide solution were filled with top soil, to which seeds of each species were planted in furrows made by a template pressed on the top of the soil. The furrows were covered with soil after planting the seed and were watered well before application of the test compounds.\nFiber flats designated for treatment were placed in a spray chamber having a static platform and a movable sprayer and the height of the spray nozzle was 10.5 inches above the soil level. Once the sprayer was calibrated using water for spray volume of 30 gallons per acre, flats were sprayed with sprayer at a speed to receive a coverage equivalent of 30 gallons per acre. The application rates are those shown in the Tables below for the individual herbicidal solutions and the herbicide compositions of this invention. The pre-emergence flats were immediately placed in the greenhouse and watered lightly after treatment. Thereafter they were regularly watered and fertilized for the duration of the test.\nas §4"}},
  "data": [
    {"smiles": "CCC(Oc1ccc(F)c(C(F)(F)F)c1)C(=O)NCc1ccccc1", "note": "(racemic) [BFL, 2-[4-fluoro-3-(trifluoromethyl)phenoxy]-N-(phenylmethyl)butanamide]", "values": [
      {"measurement": "percentage of crop injury, B", "setting": "Barley (B)", "value": 1, "unit": "%"},
      {"measurement": "percentage of weed control, Beggerticks BIDPI", "setting": "beggerticks (BIDPI); BFL at 94 g ai/ha", "value": 5, "unit": "%"},
      {"measurement": "percentage of weed control, Beggerticks BIDPI", "setting": "beggerticks (BIDPI); BFL at 125 g ai/ha", "value": 10, "unit": "%"},
      {"measurement": "control of green foxtail", "setting": "Green foxtail (SETVI); PTX at 890 g", "value": 54, "unit": "%"},
      {"measurement": "control of green foxtail", "setting": "Green foxtail (SETVI); PYX at 90 g", "value": 54, "unit": "%"},
      {"measurement": "percentage of weed control, AMBEL", "setting": "Common ragweed (AMBEL); 94 g ai/ha", "value": 5, "unit": "%"},
      {"measurement": "percentage of weed control, AMBEL", "setting": "Common ragweed (AMBEL); 125 g ai/ha", "value": 6, "unit": "%"},
      {"measurement": "percentage of weed control, AMBEL", "setting": "Common ragweed (AMBEL); 188 g ai/ha", "value": 12, "unit": "%"},
      {"measurement": "percentage of weed control, BROSE", "setting": "Cheat grass (BROSE); 94 g ai/ha", "value": 0, "unit": "%"},
      {"measurement": "percentage of weed control, BROSE", "setting": "Cheat grass (BROSE); 188 g ai/ha", "value": 6, "unit": "%"},
      {"measurement": "control of large crabgrass (DIGSA)", "setting": "Large crabgrass (DIGSA)", "value": 19, "unit": "%"},
      {"measurement": "percentage of weed control, CYPIR", "setting": "Rice flatsedge (CYPIR); 94 g ai/ha", "value": 0, "unit": "%"},
      {"measurement": "percentage of weed control, CYPIR", "setting": "Rice flatsedge (CYPIR); 188 g ai/ha", "value": 4, "unit": "%"},
      {"measurement": "percentage of weed control, ORYSA", "setting": "Redrice (ORYSA); 94 g ai/ha", "value": 46, "unit": "%"},
      {"measurement": "percentage of weed control, ORYSA", "setting": "Redrice (ORYSA); 125 g ai/ha", "value": 44, "unit": "%"},
      {"measurement": "percentage of weed control, ORYSA", "setting": "Redrice (ORYSA); 188 g ai/ha", "value": 28, "unit": "%"},
      {"measurement": "control of red rice", "setting": "Redrice (ORYSA); BFL at 187.5 g, PYX at 90 g, combination of both", "value": 69, "unit": "%"},
      {"measurement": "percentage of weed control, Morningglory IPOHE", "setting": "velvetleaf (IPOHE); 94 g ai/ha", "value": 10, "unit": "%"},
      {"measurement": "percentage of weed control, Morningglory IPOHE", "setting": "velvetleaf (IPOHE); 250 g ai/ha", "value": 8, "unit": "%"}
    ]},
    {"smiles": "CC1(C)CON(Cc2ccc(Cl)cc2Cl)C1=O", "note": "[DCI, 2-(2,4-dichlorophenyl)methyl-4,4-dimethyl-3-isoxazolidinone]", "values": [
      {"measurement": "percentage of weed control, SETVI", "setting": "Green foxtail (SETVI); 125 g ai/ha", "value": 6, "unit": "%"},
      {"measurement": "percentage of weed control, SETVI", "setting": "Green foxtail (SETVI); 250 g ai/ha", "value": 5, "unit": "%"},
      {"measurement": "percentage of weed control, AMBEL", "setting": "Common ragweed (AMBEL); 125 g ai/ha", "value": 73, "unit": "%"},
      {"measurement": "percentage of weed control, AMBEL", "setting": "Common ragweed (AMBEL); 250 g ai/ha", "value": 77, "unit": "%"},
      {"measurement": "percentage of weed control, BROSE", "setting": "Cheat grass (BROSE)", "value": 0, "unit": "%"},
      {"measurement": "percentage of weed control, DIGSA", "setting": "Large crabgrass (DIGSA); 125 g ai/ha", "value": 17, "unit": "%"},
      {"measurement": "percentage of weed control, DIGSA", "setting": "Large crabgrass (DIGSA); 250 g ai/ha", "value": 22, "unit": "%"},
      {"measurement": "control of large crabgrass (DIGSA)", "setting": "Large crabgrass (DIGSA)", "value": 17, "unit": "%"},
      {"measurement": "percentage of weed control, CYPIR", "setting": "Rice flatsedge (CYPIR)", "value": 0, "unit": "%"},
      {"measurement": "percentage of weed control, ORYSA", "setting": "Redrice (ORYSA); 125 g ai/ha", "value": 26, "unit": "%"},
      {"measurement": "percentage of weed control, ORYSA", "setting": "Redrice (ORYSA); 250 g ai/ha", "value": 42, "unit": "%"}
    ]}
  ]
}
